Patent US7415358B2, “Molecular toxicology modeling” (Ocimum Biosolutions, Inc., priority 2001, dated 2008)
Read-outs that look alike come from different tables or passages of the source.

Columns and labels:
[1] = in vivo; cited from earlier work
[2] = system: angiotensin converting enzyme (ACE); conditions: rats, 20, 25, and 30 days post-treatment; cited from earlier work
[3] = rat, in vivo, 65 mg/kg; cited from earlier work
[4] = system: glutathione reductase; conditions: cited from earlier work
[5] = system: renal cortex; conditions: cited from earlier work
[6] = CMV patients; cited from earlier work
[7] = rats, began on day 3; cited from earlier work
[8] = rats, cited from earlier work
[9] = rabbit, in vivo; cited from earlier work
[10] = system: rat hepatocytes; conditions: cited from earlier work
[11] = Clinical chemistry of the dosed rats; assay type: in vivo; conditions: rats given the high dosage
[12] = rats fed hydralazine, compared to control groups; cited from earlier work
[13] = rats and mice, varying doses; cited from earlier work
[14] = system: glomerular epithelial cell; conditions: rat, in vivo; cited from earlier work
[15] = rat, in vivo; cited from earlier work
[16] = four HIV-positive patients treated for toxoplasmosis; cited from earlier work
[17] = male Wistar rats, daily doses within human therapeutic range; cited from earlier work
[18] = treatment 2 to 25 years; cited from earlier work

For “9-[(2-hydroxyethyl) methyl] guanine [ACYCLOVIR]”, the excretion [1] is listed as “most of it is excreted in the urine largely unchanged”.
In the case of `COc1cccc2c1C(=O)c1c(O)c3c(c(O)c1C2=O)C[C@@](O)(C(=O)CO)C[C@@H]3O[C@H]1C[C@H](N)[C@H](O)[C@H](C)O1` [ADR], the “serum ACE levels” value [2] is given as “serum ACE levels were significantly elevated”.
In the case of `N.N.O=C([O-])C1(C(=O)[O-])CCC1.[Pt+2]` [CARBOPLATIN], the CGT excretion [3] is given as “increased approximately two-fold”.
For `O=C(Cc1cccs1)N[C@@H]1C(=O)N2C(C(=O)[O-])=C(C[n+]3ccccc3)CS[C@H]12` [CEPHALORIDINE], the glutathione reductase activity [4] is given as “inhibited glutathione reductase” and the “reduced glutathione (GSH) in the renal cortex” value [5] is given as “depleted reduced glutathione (GSH)”.
For `Nc1ccn(C[C@@H](CO)OCP(=O)(O)O)c(=O)n1` [CIDOFOVIR], the “patients with dose-dependent asymptomatic proteinuria” value [6] is listed as “Approximately 40%” and the “patients with elevated serum creatinine levels” value [6] is listed as 25%.
In the case of `N.N.[Cl][Pt][Cl]` [CISPLATIN, Pt(NH3)2(Cl)2], the serum creatinine levels [7] is listed as “elevations in serum creatinine levels”, the BUN ([8]; day 2, high-dose groups (10-15 mg/kg)) is listed as “six or seven-fold elevation in BUN” and the BUN ([8]; day 4, 5 mg/kg group) is listed as “BUN elevation was noted”.
In the case of `CC1=C2C(=CO[C@H](C)[C@H]2C)C(O)=C(C(=O)O)C1=O` [CITRININ], the “creatinine clearance, blood urea nitrogen, serum creatinine (renal failure)” value [9] is given as “decreased creatinine clearance and increased blood urea nitrogen and serum-creatinine levels”.
For `O=C(O)c1cc(-c2ccc(F)cc2F)ccc1O` [DIFLUNISAL], the LDH leakage ([10]; 500 μM, compared to control) is given as “increase LDH leakage”, the “intracellular ATP concentrations” value [10] is given as “decreased intracellular ATP concentrations” and the concentrations of creatinine [11] is given as “increased concentrations of creatinine”.
For `NNc1nncc2ccccc12` [HYDRALAZINE], the kidney copper concentrations [12] is given as “kidney copper concentrations were increased”.
For `NCCC(O)(P(=O)(O)O)P(=O)(O)O` [PAMIDRONATE], the “body weight and creatinine clearance” value [13] is listed as “significant weight loss and a decrease in creatinine clearance”.
In the case of `CN(C)c1ncnc2c1ncn2[C@@H]1O[C@H](CO)[C@@H](N)[C@H]1O` [PAN, puromycin aminonucleoside], the “glomerular epithelial cell apoptosis” value [14] is given as “induced glomerular epithelial cell apoptosis” and the proteinuria [15] is given as “led to proteinuria”.
For `Nc1ccc(S(=O)(=O)Nc2ncccn2)cc1` [SULFADIAZINE], the “clinical renal adverse findings” value [16] is listed as “developed oliguria, abdominal pain, renal failure”.
For LITHIUMCHLORIDE, the polyuria [17] is listed as “marked polyuria within three weeks”, the “patients with nephrogenic diabetes insipidus (NDI)” value [18] is listed as about 90% and the “patients with nephrotic proteinuria” value [18] is listed as “Approximately one fourth”.
